Numbers after ± are expanded uncertainties.
Legend:
[1] = 101 kPa, Liquid; for speed of sound: Sing-around technique in a fixed-path interferometer; for mass density: Vibrating tube method
[2] = molar heat capacity at constant pressure; conditions: 101.33 kPa, Liquid, Small sample (50 mg) DSC
[3] = refractive index (Na D-line) (dimensionless); conditions: Liquid, Standard Abbe refractometry
[4] = xn = mol fraction of the nth substance listed; conditions: 308.15 K; 101 kPa; Liquid; Sing-around technique in a fixed-path interferometer; x1 = 1
[5] = refractive index (Na D-line) (dimensionless); xn = mol fraction of the nth substance listed; conditions: 101 kPa, Liquid, Standard Abbe refractometry, x1 = 1

speed of sound ([1]; 288.15 K) [m/s]	mass density ([1]; 288.15 K) [kg/m3]	speed of sound ([1]; 298.15 K) [m/s]	mass density ([1]; 298.15 K) [kg/m3]	speed of sound ([1]; 308.15 K) [m/s]	mass density ([1]; 308.15 K) [kg/m3]	molar heat capacity at constant pressure ([2]; 288.15 K) [J/K/mol]	molar heat capacity at constant pressure ([2]; 298.15 K) [J/K/mol]	molar heat capacity at constant pressure ([2]; 308.15 K) [J/K/mol]	refractive index ([3]; 288.15 K, 101 kPa)	refractive index ([3]; 288.15 K, 101.33 kPa)	refractive index ([3]; 298.15 K, 101 kPa)	refractive index ([3]; 298.15 K, 101.33 kPa)	refractive index ([3]; 308.15 K, 101 kPa)	refractive index ([3]; 308.15 K, 101.33 kPa)	SMILES	speed of sound [4] [m/s]	refractive index ([5]; 288.15 K)	refractive index ([5]; 298.15 K)	refractive index ([5]; 308.15 K)
1774.5 ± 1.5	1225.93 ± 0.54	1745.2 ± 1.5	1219.26 ± 0.53	1718.4 ± 1.5	1212.65 ± 0.52	399 ± 8	412 ± 8	420 ± 8	1.51631 ± 0.00053	1.51631 ± 0.00053	1.5135 ± 0.00053	1.5135 ± 0.00053	1.51067 ± 0.00053	1.51067 ± 0.00053	CCOS(=O)(=O)[O-].CCc1cccc[n+]1CC [1,2-diethylpyridinium ethylsulfate]	–	–	–	–
1484.6 ± 1.4	1260.33 ± 0.58	1460.1 ± 1.4	1252.98 ± 0.57	1436.7 ± 1.4	1245.78 ± 0.56	424 ± 8	435 ± 9	441 ± 9	1.43557 ± 0.00052	–	1.43289 ± 0.00052	–	1.43018 ± 0.00052	–	CCCC[N+]1(C)CCCC1.O=S(=O)([O-])C(F)(F)F [1-butyl-1-methylpyrrolidinium trifluoromethanesulfonate]	–	–	–	–
1414.3 ± 1.4	1307.5 ± 0.63	1391.4 ± 1.4	1299.55 ± 0.62	1369.1 ± 1.4	1291.62 ± 0.61	–	–	–	1.44032 ± 0.00053	1.44032 ± 0.00053	1.43755 ± 0.00053	1.43755 ± 0.00053	1.43475 ± 0.00053	1.43475 ± 0.00053	CCCCn1cc[n+](C)c1.O=S(=O)([O-])C(F)(F)F [1-butyl-3-methylimidazolium trifluoromethanesulfonate]	–	–	–	–
1436.1 ± 1.4	1287.07 ± 0.61	1412.3 ± 1.4	1279.41 ± 0.6	1389.6 ± 1.4	1271.8 ± 0.59	496 ± 10	520 ± 10	535 ± 11	1.46446 ± 0.00053	1.46446 ± 0.00053	1.46155 ± 0.00053	1.46155 ± 0.00053	1.45868 ± 0.00053	1.45868 ± 0.00053	CCCC[n+]1cccc(C)c1.O=S(=O)([O-])C(F)(F)F [1-butyl-3-methylpyridinium trifluoromethanesulfonate]	–	–	–	–
1901.1 ± 1.5	1352.86 ± 0.69	1875.8 ± 1.5	1346.12 ± 0.68	1852.4 ± 1.5	1339.37 ± 0.67	288 ± 6	299 ± 6	305 ± 6	1.51603 ± 0.00052	1.51603 ± 0.00052	1.5134 ± 0.00052	1.5134 ± 0.00052	1.51077 ± 0.00052	1.51077 ± 0.00052	COS(=O)(=O)[O-].C[n+]1ccccc1 [1-methylpyridinium methylsulfate]	–	–	–	–
–	–	–	–	–	–	–	–	–	–	–	–	–	–	–	O [water] + CCCCCCn1cc[n+](C)c1.N#CN=C=[N-]	1522.3 ± 1	1.33349 ± 0.00041	1.33255 ± 0.00042	1.33131 ± 0.00042
–	–	–	–	–	–	–	–	–	–	–	–	–	–	–	O [water] + CCCC[N+]1(C)CCCC1.N#CN=C=[N-]	1522.3 ± 1	1.33349 ± 0.00041	1.33255 ± 0.00042	1.33131 ± 0.00042
–	–	–	–	–	–	–	–	–	–	–	–	–	–	–	O [water] + CCCC[N+]1(C)CCCC1.O=S(=O)([O-])C(F)(F)F	1522.3 ± 1	1.33349 ± 0.00041	1.33255 ± 0.00042	1.33131 ± 0.00042
–	–	–	–	–	–	–	–	–	–	–	–	–	–	–	O [water] + CCCC[n+]1cccc(C)c1.O=S(=O)([O-])C(F)(F)F	1522.3 ± 1	1.33349 ± 0.00041	1.33255 ± 0.00042	1.33131 ± 0.00042
–	–	–	–	–	–	–	–	–	–	–	–	–	–	–	O [water] + CCCCn1cc[n+](C)c1.N#CN=C=[N-]	1522.3 ± 1	1.33349 ± 0.00041	1.33255 ± 0.00042	1.33131 ± 0.00042
–	–	–	–	–	–	–	–	–	–	–	–	–	–	–	O [water] + CCCCn1cc[n+](C)c1.O=S(=O)([O-])C(F)(F)F	1522.3 ± 1	1.33349 ± 0.00041	1.33255 ± 0.00042	1.33131 ± 0.00042
–	–	–	–	–	–	–	–	–	–	–	–	–	–	–	O [water] + CCOS(=O)(=O)[O-].CCc1cccc[n+]1CC	1522.3 ± 1	1.33349 ± 0.00041	1.33255 ± 0.00042	1.33131 ± 0.00042
–	–	–	–	–	–	–	–	–	–	–	–	–	–	–	O [water] + COS(=O)(=O)[O-].C[n+]1ccccc1	1522.3 ± 1	1.33349 ± 0.00041	1.33255 ± 0.00042	1.33131 ± 0.00042

SMILES	speed of sound ([1]; 288.15 K) [m/s]	mass density ([1]; 288.15 K) [kg/m3]	speed of sound ([1]; 298.15 K) [m/s]	mass density ([1]; 298.15 K) [kg/m3]	speed of sound ([1]; 308.15 K) [m/s]	mass density ([1]; 308.15 K) [kg/m3]	molar heat capacity at constant pressure ([2]; 288.15 K) [J/K/mol]	molar heat capacity at constant pressure ([2]; 298.15 K) [J/K/mol]	molar heat capacity at constant pressure ([2]; 308.15 K) [J/K/mol]	refractive index ([3]; 288.15 K, 101 kPa)	refractive index ([3]; 288.15 K, 101.33 kPa)	refractive index ([3]; 298.15 K, 101 kPa)	refractive index ([3]; 298.15 K, 101.33 kPa)	refractive index ([3]; 308.15 K, 101 kPa)	refractive index ([3]; 308.15 K, 101.33 kPa)	speed of sound [4] [m/s]	refractive index ([5]; 288.15 K)	refractive index ([5]; 298.15 K)	refractive index ([5]; 308.15 K)
CCCC[N+]1(C)CCCC1.N#CN=C=[N-] [1-butyl-1-methylpyrrolidinium dicyanamide]	1836.9 ± 2.3	1019.17 ± 1.1	1811.1 ± 2.3	1013.53 ± 1.1	1781.9 ± 2.3	1007.93 ± 1.1	473 ± 9	502 ± 10	521 ± 10	1.49968 ± 0.00063	1.49968 ± 0.00063	1.49681 ± 0.00063	1.49681 ± 0.00063	1.49392 ± 0.00064	1.49392 ± 0.00064	–	–	–	–
CCCCn1cc[n+](C)c1.N#CN=C=[N-] [1-butyl-3-methylimidazolium dicyanamide]	1764.3 ± 2.3	1066.58 ± 1.3	1738.1 ± 2.3	1060.17 ± 1.2	1713.1 ± 2.3	1053.83 ± 1.2	367 ± 7	376 ± 8	381 ± 8	1.51213 ± 0.00065	1.51213 ± 0.00065	1.50893 ± 0.00065	1.50893 ± 0.00065	1.50578 ± 0.00065	1.50578 ± 0.00065	–	–	–	–
CCCCCCn1cc[n+](C)c1.N#CN=C=[N-] [1-hexyl-3-methylimidazolium dicyanamide]	1713.4 ± 3.2	1034.76 ± 2.6	1687.7 ± 3.2	1028.56 ± 2.6	1662.7 ± 3.2	1022.4 ± 2.5	510 ± 10	534 ± 11	548 ± 11	1.50729 ± 0.00079	1.50729 ± 0.00079	1.50415 ± 0.00079	1.50415 ± 0.00079	1.501 ± 0.00079	1.501 ± 0.00079	–	–	–	–
